Laboratory results reported in ChEMBL document CHEMBL1150834, “Novel halogenated metabolites from the Malaysian Laurencia pannosa” (2001).

Experiments:
Assay type in all cases: functional
[1] = system: Chromobacterium violaceum; experiment: Antibacterial activity against Chromobacterium violaceum after 24 hrs by paper disk method
Proteus mirabilis = experiment: Antibacterial activity against Proteus mirabilis after 24 hrs by paper disk method
Vibrio cholerae = experiment: Antibacterial activity against Vibrio cholerae after 24 hrs by paper disk method

Compound | MIC [1] [µg] | MIC (Proteus mirabilis) [µg] | MIC (Vibrio cholerae) [µg]
C#C/C=C\C[C@@H]1O[C@H]2C[C@@H]1O[C@H](CC)[C@@H](Br)C[C@@H]2Cl | 100 | – | –
C[C@@H]1[C@]2(CC[C@@](C)(Cl)[C@H](Br)C2)[C@]2(C)CC[C@@]1(C)O2 [PANNOSANE] | 60 | – | –
C=C1[C@@H](C)CC[C@@](C)(O)[C@@]12CC[C@@](C)(Cl)[C@H](Br)C2 [PANNOSANOL] | 100 | 60 | 100
